# Measurements as given in patent publication US20040170714A1, “Bauhinia extracts” (priority 2001, published 2004).
# Experiments:
# N0-STZ rats [1] = assay: Fasting plasma glucose concentration on day 5 in the N0-STZ rat model; assay type: in vivo; settings: 2 × 100 mg/kg daily; day 5, after 2 hour fasting, before glucose; control −14
# Description: The fasting plasma glucose concentration (table 4) is measured from blood samples obtained after a 2 hour fasting period on day 5 before the administration of glucose. In addition, preferred extracts of the invention in hand show a significant decrease of the fasting plasma glucose concentration versus initial basal glycemia. Preferred extracts show a decrease of the fasting plasma glucose concentration of at least 10%, more preferred of at least 28% versus initial basal glycemia.
# The fasting plasma glucose concentration (table 4) is measured from blood samples obtained after a 2 hour fasting period on day 5 before the administration of glucose.
# N0-STZ rats [2] = assay: Oral Glucose Tolerance Test (OGTT) in the N0-STZ rat model after 5 days of gavage; assay type: in vivo; settings: Example 2a, 2 × 100 mg/kg daily for 5 days
# Description: The N0-STZ rat model is described in Portha B., Picon L., Rosselin G., Diabetologia, 1979, 17, 371-377. The Oral Glucose Tolerance Test (OGTT) is described in Wilkerson: Diagnosis, oral glucose tolerance test: in Diabetes mellitus, Diagnosis & Treatment, p.31-34, NY, American Diabetes Association, 1964. During 5 days an appropriate dose of the extract is gavaged into the N0-STZ rats two times a day. Three hours after the last administration the Oral Glucose Tolerance Test (OGTT) is performed in awake rats by administering 2 g glucose/kg body weight. Blood samples are collected just before glucose administration (0 min) and after 30, 60 90, 120 and 180 minutes.
# (§1) The N0-STZ rat model is used to evaluate the efficacy of the extract of example 1. During 5 days an appropriate dose of the drug (table 1) is gavaged into 8 N0-STZ rats two times a day. Three hours after the last administration the Oral Glucose Tolerance Test (OGTr) is performed in awake rats by administering 2 g glucose/kg body weight. Blood samples are collected just before glucose administration (0 min) and after 30, 60 90 and 120 minutes.
# as §1, with “5)” for “1)”, “rats.” for “rats two times a day.”, “(OGTT)” for “(OGTr)”
compound,measurement,setting,value
"CN(C)C(=N)N=C(N)N [example 24, metformin]",Effect on fasting Plasma Glucose Concentration in % of variation versus initial basal glycemia,N0-STZ rats [1],−31%
same,OGTT area under curve: deviation from control (23),N0-STZ rats [2],−18%
same,"OGTT: Area under curve (Integration of the Plasma Glucose Level versus time, table 2)",N0-STZ rats [2]; 0-120 min,26363
same,Plasma Glucose Level,N0-STZ rats [2]; 30 min after 2 g glucose/kg,245 mg/dL
same,Plasma Glucose Level,N0-STZ rats [2]; 60 min after 2 g glucose/kg,242 mg/dL
same,Plasma Glucose Level,N0-STZ rats [2]; 90 min after 2 g glucose/kg,223 mg/dL
same,Plasma Glucose Level,N0-STZ rats [2]; 120 min after 2 g glucose/kg,207 mg/dL
same,Plasma Glucose Level,N0-STZ rats [2]; time −0 min (just before 2 g glucose/kg),143 mg/dL
